For 29 compounds, IC50 results are on record in patent publication US7750003B2, “Compounds-943” (AstraZeneca AB, priority 2006, dated 2010).

In general, IC50 refers to the midpoint of a concentration-inhibition curve.

This experiment relates to phosphorylation of Serine 473 in Akt in MDA-MB-468 human breast adenocarcinoma cells. Nature of the experiment: In vitro phospho-Ser473 Akt assay (Test (c)). It counts as cell-based. The conditions noted are these: Homo sapiens, MDA-MB-468, 2 h, MDA-MB-468 cells, 2 hours incubation; read-out: Test (c): IC50 versus Serine 473 in Akt. Put shortly:
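MDA-MB-468 cells (15000/well, adhered overnight) treated with compound for 2 h at 37 °C, 5% CO2. After formaldehyde fixation, permeabilisation and blocking, phospho-Akt Ser473 immunostained with Alexafluor488 secondary and quantified by laser-scanning imaging (Acumen Explorer); IC50 from fluorescence dose–response.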
For `C[C@H]1COCCN1c1cc(C(C)(C)S(=O)(=O)C2CC2)nc(-c2ccc(NC(=O)NCCO)cc2)n1` [Example 57i, 1-[4-[4-(2-cyclopropylsulfonylpropan-2-yl)-6-[(3S)-3-methylmorpholin-4-yl]pyrimidin-2-yl]phenyl]-3-(2-hydroxyethyl)urea], the IC50 is 0.27 µM.
Take `CCNC(=O)Nc1ccc(-c2nc(CS(=O)(=O)C3CC3)cc(N3CCOC[C@@H]3C)n2)cc1` [Example 57j, 1-[4-[4-(cyclopropylsulfonylmethyl)-6-[(3S)-3-methylmorpholin-4-yl]pyrimidin-2-yl]phenyl]-3-ethyl-urea]: the IC50 was 0.07 µM.
Consider `CCNC(=O)Nc1ccc(-c2nc(N3CCOC[C@@H]3C)cc(C(C)(C)S(=O)(=O)C3CC3)n2)cc1` [Example 57k, 1-[4-[4-(2-cyclopropylsulfonylpropan-2-yl)-6-[(3S)-3-methylmorpholin-4-yl]pyrimidin-2-yl]phenyl]-3-ethyl-urea], for which the IC50 turned out to be 0.34 µM.
Regarding `C[C@H]1COCCN1c1cc(CS(=O)(=O)C2CC2)nc(-c2ccc(NC(=O)NC3CCC3)cc2)n1` [Example 57l, 3-cyclobutyl-1-[4-[4-(cyclopropylsulfonylmethyl)-6-[(3S)-3-methylmorpholin-4-yl]pyrimidin-2-yl]phenyl]urea], the IC50 was 0.088 µM.
For `C[C@H]1COCCN1c1cc(CS(=O)(=O)CCO)nc(-c2ccc(NC(=O)NC3CCC3)cc2)n1` [Example 59a, 3-cyclobutyl-1-[4-[4-(2-hydroxyethylsulfonylmethyl)-6-[(3S)-3-methylmorpholin-4-yl]pyrimidin-2-yl]phenyl]urea], the 50% inhibitory concentration (IC50) was 0.037 µM.
The value for `CC(C)S(=O)(=O)Cc1cc(N2CCOC[C@@H]2C)nc(-c2ccc(NC(=O)NC3CCC3)cc2)n1` [Example 60, 3-Cyclobutyl-1-[4-[4-[(3S)-3-methylmorpholin-4-yl]-6-(propan-2-ylsulfonylmethyl)pyrimidin-2-yl]phenyl]urea] was 1 µM; that for `CCCNC(=O)Nc1ccc(-c2nc(CS(=O)(=O)C(C)C)cc(N3CCOC[C@@H]3C)n2)cc1` [Example 60a, 3-[4-[4-[(3S)-3-methylmorpholin-4-yl]-6-(propan-2-ylsulfonylmethyl)pyrimidin-2-yl]phenyl]-1-propyl-urea] was 3.3 µM.
On to `CC(C)CNC(=O)Nc1ccc(-c2nc(CS(=O)(=O)C(C)C)cc(N3CCOC[C@@H]3C)n2)cc1` [Example 60b, 1-[4-[4-[(3S)-3-methylmorpholin-4-yl]-6-(propan-2-ylsulfonylmethyl)pyrimidin-2-yl]phenyl]-3-(2-methylpropyl)urea], for which the IC50 worked out at 1.8 µM.
For the compound `CC(C)S(=O)(=O)Cc1cc(N2CCOC[C@@H]2C)nc(-c2ccc(NC(=O)NCCCO)cc2)n1` [Example 60c, 3-(3-hydroxypropyl)-1-[4-[4-[(3S)-3-methylmorpholin-4-yl]-6-(propan-2-ylsulfonylmethyl)pyrimidin-2-yl]phenyl]urea], the IC50 turned out to be 0.77 µM.
With `CC(C)S(=O)(=O)Cc1cc(N2CCOC[C@@H]2C)nc(-c2ccc(NC(=O)Nc3ccc(C(F)(F)F)cc3)cc2)n1` [Example 60d, 1-[4-[4-[(3S)-3-methylmorpholin-4-yl]-6-(propan-2-ylsulfonylmethyl)pyrimidin-2-yl]phenyl]-3-[4-(trifluoromethyl)phenyl]urea], the IC50 was 0.59 µM.
Turning to `CC(C)S(=O)(=O)Cc1cc(N2CCOC[C@@H]2C)nc(-c2ccc(NC(=O)Nc3ccccn3)cc2)n1` [Example 60e, 1-[4-[4-[(3S)-3-methylmorpholin-4-yl]-6-(propan-2-ylsulfonylmethyl)pyrimidin-2-yl]phenyl]-3-pyridin-2-yl-urea], the IC50 is 1.3 µM.
The value for `CC(C)NC(=O)Nc1ccc(-c2nc(CS(=O)(=O)C(C)C)cc(N3CCOC[C@@H]3C)n2)cc1` [Example 60f, 1-[4-[4-[(3S)-3-methylmorpholin-4-yl]-6-(propan-2-ylsulfonylmethyl)pyrimidin-2-yl]phenyl]-3-propan-2-yl-urea] was 0.87 µM; that for `CC(C)S(=O)(=O)Cc1cc(N2CCOC[C@@H]2C)nc(-c2ccc(NC(=O)NC(C)(C)CO)cc2)n1` [Example 60g, 3-(1-hydroxy-2-methyl-propan-2-yl)-1-[4-[4-[(3S)-3-methylmorpholin-4-yl]-6-(propan-2-ylsulfonylmethyl)pyrimidin-2-yl]phenyl]urea] was 0.22 µM; that for `CC(C)S(=O)(=O)Cc1cc(N2CCOC[C@@H]2C)nc(-c2ccc(NC(=O)Nc3cnn(C)c3)cc2)n1` [Example 60h, 1-[4-[4-[(3S)-3-methylmorpholin-4-yl]-6-(propan-2-ylsulfonylmethyl)pyrimidin-2-yl]phenyl]-3-(1-methylpyrazol-4-yl)urea] was 1.9 µM.
For the compound `CNC(=O)Nc1ccc(-c2nc(N3CCOC[C@@H]3C)cc(C(C)(C)S(=O)(=O)C(C)C)n2)cc1` [Example 60i, 3-methyl-1-[4-[4-[(3S)-3-methylmorpholin-4-yl]-6-(2-propan-2-ylsulfonylpropan-2-yl)pyrimidin-2-yl]phenyl]urea], the IC50 came to 0.12 µM.
Under `CCNC(=O)Nc1ccc(-c2nc(N3CCOC[C@@H]3C)cc(C(C)(C)S(=O)(=O)C(C)C)n2)cc1` [Example 60j, 1-ethyl-3-[4-[4-[(3S)-3-methylmorpholin-4-yl]-6-(2-propan-2-ylsulfonylpropan-2-yl)pyrimidin-2-yl]phenyl]urea] stands 0.19 µM; under `CC(C)NC(=O)Nc1ccc(-c2nc(N3CCOC[C@@H]3C)cc(C(C)(C)S(=O)(=O)C(C)C)n2)cc1` [Example 60k, 1-[4-[4-[(3S)-3-methylmorpholin-4-yl]-6-(2-propan-2-ylsulfonyl-propan-2-yl)pyrimidin-2-yl]phenyl]-3-propan-2-yl-urea], 0.18 µM.
Consider `CC(C)S(=O)(=O)C(C)(C)c1cc(N2CCOC[C@@H]2C)nc(-c2ccc(NC(=O)NC3CC3)cc2)n1` [Example 60l, 3-cyclopropyl-1-[4-[4-[(3S)-3-methylmorpholin-4-yl]-6-(2-propan-2-ylsulfonylpropan-2-yl)pyrimidin-2-yl]phenyl]urea], for which the IC50 was 0.064 µM.
On to `CC(C)S(=O)(=O)C(C)(C)c1cc(N2CCOC[C@@H]2C)nc(-c2ccc(NC(=O)NC3CCC3)cc2)n1` [Example 60m, 3-cyclobutyl-1-[4-[4-[(3S)-3-methylmorpholin-4-yl]-6-(2-propan-2-ylsulfonylpropan-2-yl)pyrimidin-2-yl]phenyl]urea], for which the IC50 came to 0.059 µM.
Regarding `CC(C)S(=O)(=O)C(C)(C)c1cc(N2CCOC[C@@H]2C)nc(-c2ccc(NC(=O)NCCO)cc2)n1` [Example 60n, 3-(2-hydroxyethyl)-1-[4-[4-[(3S)-3-methylmorpholin-4-yl]-6-(2-propan-2-ylsulfonylpropan-2-yl)pyrimidin-2-yl]phenyl]urea], the IC50 worked out at 0.15 µM.
Turning to `CC(C)S(=O)(=O)C(C)(C)c1cc(N2CCOC[C@@H]2C)nc(-c2ccc(NC(=O)NC(C)(C)CO)cc2)n1` [Example 60o, 3-(1-hydroxy-2-methyl-propan-2-yl)-1-[4-[4-[(3S)-3-methylmorpholin-4-yl]-6-(2-propan-2-ylsulfonylpropan-2-yl)pyrimidin-2-yl]phenyl]urea], the IC50 stood at 0.086 µM.
Under `CC(C)S(=O)(=O)C(C)(C)c1cc(N2CCOC[C@@H]2C)nc(-c2ccc(NC(=O)NCCN(C)C)cc2)n1` [Example 60p, 3-(2-dimethylaminoethyl)-1-[4-[4-[(3S)-3-methylmorpholin-4-yl]-6-(2-propan-2-ylsulfonylpropan-2-yl)pyrimidin-2-yl]phenyl]urea] stands 0.14 µM; under `CCCNC(=O)Nc1ccc(-c2nc(N3CCOC[C@@H]3C)cc(C(C)(C)S(=O)(=O)C(C)C)n2)cc1` [Example 60q, 3-[4-[4-[(3S)-3-methylmorpholin-4-yl]-6-(2-propan-2-ylsulfonylpropan-2-yl)pyrimidin-2-yl]phenyl]-1-propyl-urea], 0.16 µM.
Take `CC(C)CNC(=O)Nc1ccc(-c2nc(N3CCOC[C@@H]3C)cc(C(C)(C)S(=O)(=O)C(C)C)n2)cc1` [Example 60r, 1-[4-[4-[(3S)-3-methylmorpholin-4-yl]-6-(2-propan-2-ylsulfonylpropan-2-yl)pyrimidin-2-yl]phenyl]-3-(2-methylpropyl)urea]: the IC50 turned out to be 0.21 µM.
Take `CC(C)S(=O)(=O)C(C)(C)c1cc(N2CCOC[C@@H]2C)nc(-c2ccc(NC(=O)NCCCO)cc2)n1` [Example 60s, 3-(3-hydroxypropyl)-1-[4-[4-[(3S)-3-methylmorpholin-4-yl]-6-(2-propan-2-ylsulfonylpropan-2-yl)pyrimidin-2-yl]phenyl]urea]: the IC50 was 0.3 µM.
As to `CC(C)S(=O)(=O)C(C)(C)c1cc(N2CCOC[C@@H]2C)nc(-c2ccc(NC(=O)Nc3ccc(C(F)(F)F)cc3)cc2)n1` [Example 60t, 1-[4-[4-[(3S)-3-methylmorpholin-4-yl]-6-(2-propan-2-ylsulfonylpropan-2-yl)pyrimidin-2-yl]phenyl]-3-[4-(trifluoromethyl)phenyl]urea], the IC50 is 1.4 µM.
As to `CC(C)S(=O)(=O)C(C)(C)c1cc(N2CCOC[C@@H]2C)nc(-c2ccc(NC(=O)Nc3cnn(C)c3)cc2)n1` [Example 60v, 1-[4-[4-[(3S)-3-methylmorpholin-4-yl]-6-(2-propan-2-ylsulfonylpropan-2-yl)pyrimidin-2-yl]phenyl]-3-(1-methylpyrazol-4-yl)urea], the concentration for half-maximal inhibition (IC50) stood at 0.27 µM.
With `C[C@H]1COCCN1c1cc(CS(=O)(=O)c2ccc(F)cc2)nc(-c2ccc(NC(=O)NC3CCC3)cc2)n1` [Example 61, 3-Cyclobutyl-1-[4-[4-[(4-fluorophenyl)sulfonylmethyl]-6-[(3S)-3-methylmorpholin-4-yl]pyrimidin-2-yl]phenyl]urea], the IC50 amounted to 0.33 µM.
For `CCNC(=O)Nc1ccc(-c2nc(CS(=O)(=O)c3ccc(F)cc3)cc(N3CCOC[C@@H]3C)n2)cc1` [Example 61a, 1-ethyl-3-[4-[4-[(4-fluorophenyl)sulfonylmethyl]-6-[(3S)-3-methylmorpholin-4-yl]pyrimidin-2-yl]phenyl]urea], the IC50 turned out to be 0.75 µM.
